According to ChEMBL document CHEMBL1150923, “A new cacospongionolide inhibitor of human secretory phospholipase A2 from the Tyrrhenian sponge Fasciospongia cavernosa and absolute configuration of cacospongionolides” (J Nat Prod, 1998):
In brackets after ≈: the same amount, converted by molar mass.

How the values were obtained:
[1] = biological target: T1, Phospholipase A2, membrane associated (Homo sapiens, UniProt P14555); assay: Inhibition of human synovial group2 sPLA2 by liquid scintillation counting
T1 sequence (P14555 whole entry): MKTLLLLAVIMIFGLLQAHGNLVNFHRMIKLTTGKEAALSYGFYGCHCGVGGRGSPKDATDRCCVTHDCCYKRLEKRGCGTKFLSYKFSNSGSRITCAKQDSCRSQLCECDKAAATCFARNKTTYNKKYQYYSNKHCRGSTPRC

[2] = Inhibition of pig pancreatic group1 sPLA2 by liquid scintillation counting; design: species or system Sus scrofa
[3] = Cytotoxicity against human neutrophils by MTT assay; format: cell-based; conditions: neutrophil
[4] = Inhibition of pig pancreatic group1 sPLA2 at 10 uM by liquid scintillation counting; design: species or system Sus scrofa
[5] = Toxicity in Artemia salina; format: organism-based; conditions: in vivo
[6] = Toxicity in Gambusia affinis; format: organism-based; conditions: in vivo
[7] = biological target: T2, Phospholipase A2 (Apis mellifera, UniProt P00630); assay: Inhibition of bee venom group3 sPLA2 by liquid scintillation counting
T2 sequence (P00630 whole entry): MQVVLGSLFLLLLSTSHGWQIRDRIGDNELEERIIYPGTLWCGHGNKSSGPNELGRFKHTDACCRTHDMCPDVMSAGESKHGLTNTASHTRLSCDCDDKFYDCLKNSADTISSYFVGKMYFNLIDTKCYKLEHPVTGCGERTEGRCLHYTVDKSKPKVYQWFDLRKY

[8] = biological target: T3, Phospholipase A2, membrane associated (Rattus norvegicus, UniProt P14423); assay: Inhibition of rat air pouch group2 sPLA2 by liquid scintillation counting
T3 sequence (P14423 whole entry): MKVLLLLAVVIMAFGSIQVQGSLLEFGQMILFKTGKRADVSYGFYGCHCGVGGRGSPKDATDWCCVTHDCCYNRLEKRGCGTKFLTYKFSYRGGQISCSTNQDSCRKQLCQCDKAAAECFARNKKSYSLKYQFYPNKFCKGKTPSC

Row | SMILES | IC50 [1] | IC50 [2] | Activity [3] | IC50 [4] | LC50 [5] | LC50 [6] | IC50 [7] | IC50 [8]
1 | C=C1CCC[C@H]2[C@](C)(CCC3=CCC(C4=CC(=O)OC4O)OC3)[C@H](C)CC[C@]12C (stereo partly drawn) [CACOSPONGIONOLIDE B] | 4.3 µM | 4 µM | Not Active | 64.2 µM | – | – | – | –
2 | CC1=CCC[C@@H]2[C@@](C)(CCC3=CC[C@H](C4=CC(=O)O[C@H]4O)OC3)[C@@H](C)CC[C@@]12C [CACOSPONGIONOLIDE E] | 1.4 µM | – | Not Active | 5.3 µM | 1.29 µg/mL (≈ 3.22 µM) | 1.01 µg/mL (≈ 2.52 µM) | 2.8 µM | 7.8 µM
3 | C[C@H]1CC[C@@]23C[C@]2(C)CCC[C@@H]3[C@@]1(C)CCC1=CC[C@H](C2=CC(=O)O[C@H]2O)OC1 [CACOSPONGIONOLIDE] | 3 µM | – | Not Active | 14.4 µM | – | – | 2.3 µM | –
4 | CC1=C(CC/C(C)=C/CCC2=CC[C@H](C3=CC(=O)O[C@H]3O)O[C@H]2O)C(C)(C)CCC1 [MANOALIDE] | 3.9 µM | – | Not Active | 32.3 µM | – | – | – | –
